Laboratory results: USRE39682E1, “Farnesyl derivatives and pharmaceutical compositions containing them” (Ramot at Tel Aviv University Ltd., priority 1993, dated 2007)

Experiments:
PPMTase [1] = target: T1, PPMTase (Homo sapiens, UniProt O60725); experiment: PPMTase activity (AFC methylation) in membranes of HEC1A cells; type: biochemical; details: for PPMTase activity: with inhibitor
T1 construct: PPMTase activity in membranes obtained from four different cell lines as determined by methylation of AFC; endogenous in cells; host or cells: HEC1A cell membranes
T1 sequence (O60725 whole entry): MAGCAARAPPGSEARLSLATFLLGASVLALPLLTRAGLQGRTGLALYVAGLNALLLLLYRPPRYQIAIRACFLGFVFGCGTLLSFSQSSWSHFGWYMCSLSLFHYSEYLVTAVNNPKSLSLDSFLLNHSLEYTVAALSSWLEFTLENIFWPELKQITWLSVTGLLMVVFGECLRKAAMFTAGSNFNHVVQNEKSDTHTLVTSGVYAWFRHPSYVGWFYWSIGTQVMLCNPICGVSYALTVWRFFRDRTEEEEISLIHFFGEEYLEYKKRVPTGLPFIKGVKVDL
Procedure: (§1) Charles River adult male rats were used for preparation of cerebellar synaptosomal membranes. Cerebella were removed after decapitation and homogenized in 0.32M sucrose containing 50 mM Tris-HCl pH 7.4, 3 mM EDTA, 1 mM EGTA, 5 unit/ml aprotinin and 5 μg/ml pepstatin (buffer A) to yield 10% (w/v) homogenates. Nuclear fractions were obtained by 10 min. 600×g centrifugation and synaptosomal fractions were obtained by 20 mins. 14,500×g centrifugation. Membranes of the various cell types used were prepared in the above buffer A by a 60 min. spin at 100,000×g.
(§2) Pellets were resuspended in the homogenization buffer and stored at −70° C. Methylation assays were performed at 37° C. in 50 mM Tris-HCl buffer pH 7.4, using 75-125 μg protein, 25 μM [methyl-^3H]AdoMet ([…]) as a methyl donor and 150 μM AFC as a methylation substrate (prepared as a stock solution in DMSO) in a total volume of 50 μl. DMSO concentration in all assays was 4%.
(§3) Reactions were terminated after 10 min. by adding 500 μl chloroform methanol (1:1) and a subsequent addition of 250 μl H2O, mixing them and subsequently by phase separation. A portion of 125 μl of the chloroform phase was dried down at 40° C. and 200 μl of 1M NaOH/1% SDS solution were added thereto. The [^3H]methanol thus formed was counted by the vapor phase equilibrium method as described previously (Hakiai et al., Cell Mol. Neurobiol., 11, 415-431, (1991); Lenner et al., Cell Mol. Neurbiol., 12, 333 and 3351, (1992); Ben-Baruch et al., Biochem. Biophy. Res. Commun., 195, 282-288, (1993)). Typical background counts (i.e. counts of methylation with no AFC added) were 50-100 cpm while typical methylation counts with AFC as a substrate yielded 500 to 6000 cpm. Assays were performed in triplicate and background counts subtracted. Methylation of endogenous substrates, in intact cells, and [α-^32P] GTP-blot overlay assays and gel electrophoreses were performed as detailed previously (Hakiai et al., supra (1991); Lenner et al., supra (1993)).
(§4) The B16F10 melanoma cells were grown in RPMI 1640/10% fetal calf serum, 2 mM glutamine and antibiotics as for the HEC1A cells, at the density of 1×10^4 cells/well. All four types of cells were used for determining the PPMTase activity using AFC as the substrate as described above for synaptosomal membrane preparation. Usually 150 μg membranal proteins were used in the assay for a 10 min. incubation time.

PPMTase [2] = target: T2, PPMTase (Rattus norvegicus, UniProt Q9WVM4); experiment: PPMTase activity (AFC methylation) in membranes of non-transformed Rat-1 cells; type: biochemical; details: non-transformed Rat-1 membranes; for PPMTase activity: with inhibitor
T2 construct: PPMTase activity in membranes obtained from four different cell lines as determined by methylation of AFC; endogenous in cells; host or cells: ras-transformed rat1 (EJ) cell membranes
T2 sequence (Q9WVM4 whole entry): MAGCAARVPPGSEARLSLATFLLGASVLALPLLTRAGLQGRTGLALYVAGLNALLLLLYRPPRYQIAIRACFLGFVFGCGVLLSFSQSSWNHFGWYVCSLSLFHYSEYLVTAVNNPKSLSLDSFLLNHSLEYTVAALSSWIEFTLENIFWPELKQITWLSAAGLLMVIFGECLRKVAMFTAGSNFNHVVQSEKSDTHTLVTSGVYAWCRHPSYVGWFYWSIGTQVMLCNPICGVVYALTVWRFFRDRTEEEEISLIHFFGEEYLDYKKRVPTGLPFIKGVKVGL
Procedure: as §1, §2, §3, §4

[3] = tested on: Ha-ras-transformed rat1 cells; experiment: Growth of ras-transformed rat1 cells (cell counting); type: cell-based, rat; details: for EC50: Rattus norvegicus, 168 h, day 7 of drug treatment, estimated from dose response curves, read-out: Inhibition of rab-transformed rat1 cell growth EC50
From the text: The cell lines employed were rat1, -EJ, which are rat1 cells stably expressing Val- 12 activated human Ha-ras gene (Land H. et al., Nature, 304, 596-602, (1983)); V-raf-3T3, which are 3T3 cells stably expressing the V-raf gene (Xu, N., et al., Proc. Natl. Acad. Sci., 90, 6741-6745); RB-22, which are 3T3 cells stably expressing the rat Erb-B2 gene (Peles, et al., EMBO J., 10, 2077-2086 (1991)) CO6O cells (SV40-CHO), which are CHE cells stably expressing the SV-40 T-antigen gene (Lavi, Proc. Natl. Acad. Sci., 78, 6144-6148 (1981)); human endometrial carcinoma cell line HEC1A, which are cells that express activated K-ras (Enomoto T., Cancer Res., 50, 6139-6145; mouse B16F10 melanoma cells, rat pheochromocytoma PC12 cells, […] cells CHE and COS cells.
HEC1A, V-raf-3T3 and SV40-CHE cells were grown in Dulbecco's modified Eagle medium (DMEM) containing 10% fetal calf serum (FCS), 4 mM L-glutamine, 10 μg/ml streptomycin and 10 U/ml penicillin. Rat1 and -EJ cells were grown in the same medium except that it was supplemented with 12.5 U/ml nyostatin. RB-22 cells were grown in modified DMEM (1 mM sodium pyruvate, 20 mM sodium bicarbonate)/10% FCS containing 4 mM L-glutamine, […] streptomycin, 10 U/ml penicillin. PC-12 cells were grown in DMEM 15% FCS/5% horse serum and the above noted antibiotics.
HEC1A cells were plated in 24 well plates at a density of 5×10^3 cells per well and fed with 1 ml of medium. The cells were grown at 37° C. in a humidified atmosphere of 95%/5% air/CO2. All other cell types employed were plated in 24 well plates at a density of 2×10^3 cells per well and fed with the appropriate medium.
Cultures were treated with farnesyl derivatives or with solvent either 3 hrs following plating or one day after plating as indicated. […] Control cultures received 0.1% DMSO only. Cultures were fed on days 6, 7 and 9 of the experiment with the drugs or with solvent-containing media.
Cells were counted following 3, 7 and 10 days of beginning of treatments with drugs. For counting, cells were detached from plates with trypsin/EDTA, and collected by a low speed spin in the presence of DMEM/10% FCS. The pelleted cells were resuspended in a small volume of DMEM/10% FCS and counted under the microscope. Viability of cells was estimated by staining with (3-(4,5-dimethylthiosol-2-yl)-2,5-diphenyltetrazolium bromide (MTT) and microscopic examination of the stained and unstained cells, or spectrophotometric estimation (OD490, 590) of the total stain in each well. Non viable cells were estimated by the trypan blue exclusion method.
Cells were plated at a density 2×10^3/well and received either solvent or drugs one day later. Following 3, 7, or 10 days of the drugs-treatment as described above, cells were collected and the number of cells in each well was estimated by direct counting. […] The effect was apparent after a delay of at least three days. About 40-60% inhibition of cell growth was induced either by FTA or by FTS observed on days 7 and 10 of the treatment.

HEC1A cells = experiment: Transformed phenotype (multi-layered clumps) of HEC1A cells; type: cell-based, human
From the text: HEC1A cells also grow in multi-layered clumps (FIG. 10A).

C57 black mice = details: mouse, in vivo
Procedure: Toxicity tests in intact animals were performed with C57 black and with bulb-C mice.
Four groups, each comprising 9 mice, were used. Animals of group one received 100 μl s.c. injections of 150 μM FTS in salient solution containing 1% DMSO (0.21 mg drug/kg body weight). The drug was injected every 3 days for 2 weeks. Group two, which served as controls, received the solvent/saline solution for the same period of time.

Compound	% Inhibition (PPMTase [1]) [%]	PPMTase activity (PPMTase [1]) [pmol/min/mg protein]	% Inhibition (PPMTase [2]) [%]	PPMTase activity (PPMTase [2]) [pmol/min/mg protein]	EC50 [3] [µM]	drug concentration of maximum inhibition of cell growth ([3]; days 7 and 10 of treatment) [µM]	active at concentrations times lower than those of FTA [3] [times]	Number of cells (% of control) ([3]; Hs-cis-transformed rat1, 25 μM, day 5)	inhibition of ras-transformed rat1 cell-growth ([3]; drugs on the very same day of plating)	effect on multi-layered clumps formation (HEC1A cells; 10 μM, FIG. 10B)	effect on multi-layered clumps formation (HEC1A cells; 50 μM, FIG. 10C)	toxicity to C57 mice (C57 black mice)
CC(C)=CCC/C(C)=C/CC/C(C)=C/CSCC(=O)O [FTA, S-trans, trans-farnesylthioacetic acid, reference compound]	43	1.7	66	0.9	25 to 50	50						
CC(C)=CCC/C(C)=C/CC/C(C)=C/CSc1ccccc1C(=O)O [FTS, (3,7,11-trimethyl-dodeca-2,6,10-trienyl)-2-thiobenzoic acid]	40	1.5	45	1.5	5 to 10		10	52 ± 4 % of control	observed already after 3 days in culture	significant reversal of the multi-layered clumps formation	significant reversal of the multi-layered clumps formation	not toxic
